The test concerns bacteria. Briefly: antimicrobial activity of nisin preparations placed on a skin or agar surface. The class given is cell-based. An excerpt: Most important in this embodiment is the principle that nisin must be placed in the external aqueous phase of this preparation. […] In an ointment preparation, it is retained by the lipid phase and fails to dissipate and kill bacteria.

This passage reports antimicrobial activity results from patent US20140187475A1, “Lantibiotic Compositions and Methods For Preventing or Treating Mastitis” (Medela Holding AG, priority 2012, published 2014).

Nisin: the antimicrobial activity result (nisin in an ointment preparation with little or no water) is “largely inactive” and the antimicrobial activity result (nisin in the external aqueous phase of an oil in water emulsion, placed on a skin or agar surface) is on record as “highly active”.
